Laboratory results from patent publication US20120009152A1, “NITRIC OXIDE DONORS FOR TREATMENT OF DISEASE AND INJURY” (priority 2002, published 2012).

Legend:
[1] = test system: basilar artery; details: rats; cited from earlier work
[2] = test system: dog cerebral arteries; details: cited from earlier work
[3] = test system: cGMP; details: local administration to rat brain slices; cited from earlier work
[4] = test system: Mouse brain-derived endothelial cells; assay: Capillary-like tube formation assay; type: cell-based
Description: An in vitro angiogenesis assay was performed. Briefly, 0.8 ml of growth factor reduced Matrigel (Becton Dickinson) was added to pre-chilled 35 mm culture dishes and allowed to polymerize at 37° C. for 2 to 5 hours. […] For quantitative measurements of capillary tube formation, three random areas of Matrigel dishes were imaged and the length of continuous cords of three or more cells was measured.

[5] = test system: rats subjected to embolic MCA occlusion; assay: Rotarod test after embolic MCA occlusion, SNAP study; type: in vivo, rat; details: SNAP at 24 hours after MCA occlusion; by 4 days after stroke, persisted to 14 days
Description: (§1) The question arises as to the specificity of this NO agent for the induction of neurogenesis and functional benefit. Are the effects specific for DETA/NONOate or would other agents that donate NO likewise provide functional benefit? To test this question, rats were treated with another NO donor, S-nitroso-N-acetylpenicillamine (SNAP, Sigma) that is structurally different from DETA/NONOate. Young, male adult Wistar rats were subjected to embolic MCA occlusion (Zhang et al., 1997). SNAP at a dose of 30 μg/kg was intravenously administered to rats as a bolus followed by 300 μg/kg/h infusion for 60 minutes at 24 hours after embolic MCA occlusion. As functional outcome measures, the rotarod test which assesses motor function such as coordination and balance (Zhang et al., 2000), the adhesive removal test which measures forelimb somato-sensorimotor asymmetries (Schallert et al., 2000), and animal body weight were measured prior to treatment and at 2, 4, 7, and 14 days after treatment. Animals were sacrificed at 14 days after stroke and the infarct volume was measured (Zhang, et al., 1997). […] These benefits persisted to the time of sacrifice at 14 days post stroke. […] Thus, the effect of the treatment is one of restorative therapy not neuroprotective therapy. […] Functional improvement in these animals is associated with change and remodeling of brain. […]

[6] = test system: rats subjected to embolic MCA occlusion; assay: Adhesive removal test after embolic MCA occlusion, SNAP study; type: in vivo, rat; details: SNAP at 24 hours after MCA occlusion; by 4 days after stroke, persisted to 14 days
Description: as §1

[7] = Animal body weight after embolic MCA occlusion, SNAP study; type: in vivo, rat; details: SNAP at 24 hours after MCA occlusion; 7 days after stroke; vs saline
Description: as §1

[8] = test system: rats subjected to embolic MCA occlusion; assay: Infarct volume after embolic MCA occlusion, SNAP study; type: in vivo, rat; details: SNAP 30 μg/kg iv bolus then 300 μg/kg/h for 60 minutes at 24 hours after MCA occlusion; 14 days; vs saline
Description: as §1

Q: What does the source list for `CCCOc1ccccc1-c1nc2nn[nH]c2c(=O)[nH]1` [zaprinast]?
A: dilatation of the basilar artery [1]: elicits dilatation of the basilar artery; dilatation of cerebral arteries [2]: produces dilatation of dog cerebral arteries; cGMP release [3]: increase of cGMP release

Q: Which “inhibition of DETANONOate-induced capillary-like tube formation” value ([4]; DETANONOate in the presence of ODQ) does the source give for `O=c1onc2cnc3ccccc3n12` [ODQ, 1H-[1,2,4]oxadiazolo[4,3-a]quinoxaline-1-one] here?
A: The value was “completely inhibited”.

Q: And the “inhibition of 8-BrcGMP-induced capillary-like tube formation” value ([4]; ODQ)?
A: The value was “did not significantly inhibit”.

Q: What about the “inhibition of Sildenafil-induced capillary-like tube formation” value ([4]; ODQ 10 μM, Sildenafil 300 nM) of the same compound?
A: The value was “significantly inhibited”.

Q: Which “function measured with the rotarod” value [5] does the source give for `CC(=O)N[C@H](C(=O)O)C(C)(C)SN=O` (racemic) [SNAP, S-nitroso-N-acetylpenicillamine] here?
A: The value was “significant improvement”.

Q: And the “function measured with the adhesive removal test” value [6]?
A: Its value is “significant improvement”.

Q: What about the Animal body weight [7] of the same compound?
A: The Animal body weight was “significantly increased”.

Q: And the “volume of cerebral infarction” value [8]?
A: The value was “no significant difference”.

Q: Which capillary-like tube formation ([4]; 8-BrcGMP 1 mM) does the source give for `Nc1nc2c(nc(Br)n2[C@@H]2O[C@@H]3COP(=O)(O)O[C@H]3[C@H]2O)c(=O)[nH]1` [8-BrcGMP, 8-Br-cGMP] here?
A: Its capillary-like tube formation is “significantly (p<0.05) increased”.
